Data reported in doi:10.1101/2024.08.19.608619, “Discovery of potent SARS-CoV-2 nsp3 macrodomain inhibitors uncovers lack of translation to cellular antiviral response” (bioRxiv, 2024).
Where two headings read alike, the source gives them in different places.

What was measured:
Experiment in all cases: biochemical
Set-up in all cases: In vitro kinase panel profiling, per cent remaining kinase activity at 10 uM
Aurora-A(h) = target: T1, Aurora-A(h) (Homo sapiens, UniProt O14965); conditions: atp_concentration=15, read-out: % of control remaining
T1 construct: gene AURKA
T1 sequence (O14965 1-403): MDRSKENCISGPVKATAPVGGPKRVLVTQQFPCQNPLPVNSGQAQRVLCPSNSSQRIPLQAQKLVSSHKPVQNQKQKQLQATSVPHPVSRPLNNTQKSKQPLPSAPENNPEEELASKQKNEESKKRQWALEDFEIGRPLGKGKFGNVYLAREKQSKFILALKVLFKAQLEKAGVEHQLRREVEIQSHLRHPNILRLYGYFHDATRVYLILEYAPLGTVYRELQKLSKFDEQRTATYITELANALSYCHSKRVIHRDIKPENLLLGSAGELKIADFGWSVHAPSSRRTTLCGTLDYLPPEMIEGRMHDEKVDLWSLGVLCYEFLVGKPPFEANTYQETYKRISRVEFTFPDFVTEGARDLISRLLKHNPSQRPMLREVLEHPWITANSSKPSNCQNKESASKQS
Source text: (§1) We derisk potential for off-target activity by profiling the compound in a CEREP panel, a standard secondary pharmacology assessment, as well as a kinase panel to derisk a potential hinge-binding motif in our leads, and a PARP panel to derisk activity against human […]. Reassuringly, the compounds are selective, with the only off-targets being moderate human CHRM2 and KOR receptors activity associated with ASAP-0011198.

PRAK(h) = target: T2, PRAK(h) (Homo sapiens, UniProt Q8IW41); conditions: atp_concentration=15, read-out: % of control remaining
T2 construct: gene MAPKAPK5
T2 sequence (Q8IW41 1-473): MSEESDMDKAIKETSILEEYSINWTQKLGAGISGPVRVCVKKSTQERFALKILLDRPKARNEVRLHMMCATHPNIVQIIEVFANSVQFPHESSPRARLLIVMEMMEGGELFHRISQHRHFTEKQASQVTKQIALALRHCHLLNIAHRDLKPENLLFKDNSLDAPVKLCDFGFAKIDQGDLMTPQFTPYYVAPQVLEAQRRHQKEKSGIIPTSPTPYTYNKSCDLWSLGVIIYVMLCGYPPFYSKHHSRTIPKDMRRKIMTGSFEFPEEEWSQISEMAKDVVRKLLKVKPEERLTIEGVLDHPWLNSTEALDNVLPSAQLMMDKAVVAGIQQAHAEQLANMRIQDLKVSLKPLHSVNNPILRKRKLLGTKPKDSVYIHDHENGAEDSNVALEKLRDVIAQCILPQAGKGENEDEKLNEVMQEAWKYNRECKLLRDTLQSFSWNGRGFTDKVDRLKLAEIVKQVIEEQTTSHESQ
Source text: as §1

ALK(h) = ALK(h) (Homo sapiens, UniProt Q9UM73); conditions: atp_concentration=200, read-out: % of control remaining
Source text: as §1

Abl(h) = target: T3, Abl(h) (Homo sapiens, UniProt P00519); conditions: atp_concentration=45, read-out: % of control remaining
T3 construct: gene ABL1
Source text: as §1

eEF-2K(h) = target: T4, eEF-2K(h) (Homo sapiens, UniProt O00418); conditions: atp_concentration=15, read-out: % of control remaining
T4 construct: gene EEF2K
T4 sequence (O00418 1-725): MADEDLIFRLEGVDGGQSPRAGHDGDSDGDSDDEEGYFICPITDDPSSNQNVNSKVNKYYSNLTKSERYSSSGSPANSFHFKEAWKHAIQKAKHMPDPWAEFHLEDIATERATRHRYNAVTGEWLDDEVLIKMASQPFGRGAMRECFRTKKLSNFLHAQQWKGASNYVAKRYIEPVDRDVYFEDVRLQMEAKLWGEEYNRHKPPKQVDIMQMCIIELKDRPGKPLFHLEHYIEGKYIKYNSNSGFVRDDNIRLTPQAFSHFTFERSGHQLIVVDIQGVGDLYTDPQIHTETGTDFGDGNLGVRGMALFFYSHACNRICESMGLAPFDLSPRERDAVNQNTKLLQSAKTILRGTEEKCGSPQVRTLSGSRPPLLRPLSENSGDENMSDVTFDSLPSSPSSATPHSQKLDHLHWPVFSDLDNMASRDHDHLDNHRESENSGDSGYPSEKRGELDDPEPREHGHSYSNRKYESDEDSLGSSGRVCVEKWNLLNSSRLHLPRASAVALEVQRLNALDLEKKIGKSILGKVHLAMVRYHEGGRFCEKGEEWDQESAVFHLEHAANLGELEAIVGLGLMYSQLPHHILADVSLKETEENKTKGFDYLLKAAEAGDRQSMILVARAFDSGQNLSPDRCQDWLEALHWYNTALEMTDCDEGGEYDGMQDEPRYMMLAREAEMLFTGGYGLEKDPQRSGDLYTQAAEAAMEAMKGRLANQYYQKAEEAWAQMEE
Source text: as §1

LOK(h) = target: T5, LOK(h) (Homo sapiens, UniProt O94804); conditions: atp_concentration=120, read-out: % of control remaining
T5 construct: gene STK10
Source text: as §1

MSK2(h) = target: T6, MSK2(h) (Homo sapiens, UniProt O75676); conditions: atp_concentration=45, read-out: % of control remaining
T6 construct: gene RPS6KA4
Source text: as §1

KDR(h) = KDR(h) (Homo sapiens, UniProt P35968); conditions: atp_concentration=90, read-out: % of control remaining
Source text: as §1

MLK1(h) = target: T7, MLK1(h) (Homo sapiens, UniProt P80192); conditions: atp_concentration=45, read-out: % of control remaining
T7 construct: gene MAP3K9
Source text: as §1

CDK9/cyclin T1(h) = CDK9/cyclin T1(h) (Homo sapiens, UniProt P50750); conditions: atp_concentration=45, read-out: % of control remaining
Source text: as §1

p70S6K(h) = target: T8, p70S6K(h) (Homo sapiens, UniProt P23443); conditions: atp_concentration=15, read-out: % of control remaining
T8 construct: gene RPS6KB1
Source text: as §1

Sequence of CDK9/cyclin T1(h) (P50750 whole entry): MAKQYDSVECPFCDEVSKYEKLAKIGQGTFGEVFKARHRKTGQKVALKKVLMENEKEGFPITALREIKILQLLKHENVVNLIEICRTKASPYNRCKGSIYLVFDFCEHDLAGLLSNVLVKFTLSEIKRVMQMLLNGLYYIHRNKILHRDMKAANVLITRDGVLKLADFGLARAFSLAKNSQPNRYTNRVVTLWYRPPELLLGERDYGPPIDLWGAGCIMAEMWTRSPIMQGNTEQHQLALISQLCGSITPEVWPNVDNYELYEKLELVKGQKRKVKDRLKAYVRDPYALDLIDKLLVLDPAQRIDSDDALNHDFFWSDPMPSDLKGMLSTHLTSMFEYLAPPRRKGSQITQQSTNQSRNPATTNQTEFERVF
Sequence of CDK9/cyclin T1(h) (O60563 whole entry partner): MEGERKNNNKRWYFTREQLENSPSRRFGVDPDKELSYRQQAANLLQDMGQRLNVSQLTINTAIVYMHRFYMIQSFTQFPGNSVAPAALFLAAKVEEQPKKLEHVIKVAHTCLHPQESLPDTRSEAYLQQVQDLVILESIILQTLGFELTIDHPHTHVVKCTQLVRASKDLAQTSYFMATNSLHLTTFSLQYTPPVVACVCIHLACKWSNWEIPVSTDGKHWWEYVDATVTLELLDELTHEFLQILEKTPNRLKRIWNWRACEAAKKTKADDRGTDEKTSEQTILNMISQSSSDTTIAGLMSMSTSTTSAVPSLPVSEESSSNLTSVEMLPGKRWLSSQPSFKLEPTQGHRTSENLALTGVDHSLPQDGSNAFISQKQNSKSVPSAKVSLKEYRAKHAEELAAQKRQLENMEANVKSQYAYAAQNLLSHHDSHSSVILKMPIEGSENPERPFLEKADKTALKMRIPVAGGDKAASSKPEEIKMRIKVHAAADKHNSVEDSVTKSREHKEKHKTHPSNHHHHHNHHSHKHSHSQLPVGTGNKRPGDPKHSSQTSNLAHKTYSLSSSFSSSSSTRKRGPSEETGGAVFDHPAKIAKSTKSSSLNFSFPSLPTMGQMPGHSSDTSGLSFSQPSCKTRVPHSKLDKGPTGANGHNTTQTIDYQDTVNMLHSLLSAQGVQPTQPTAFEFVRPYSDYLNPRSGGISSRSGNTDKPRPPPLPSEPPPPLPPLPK
T5 sequence (O94804 whole entry): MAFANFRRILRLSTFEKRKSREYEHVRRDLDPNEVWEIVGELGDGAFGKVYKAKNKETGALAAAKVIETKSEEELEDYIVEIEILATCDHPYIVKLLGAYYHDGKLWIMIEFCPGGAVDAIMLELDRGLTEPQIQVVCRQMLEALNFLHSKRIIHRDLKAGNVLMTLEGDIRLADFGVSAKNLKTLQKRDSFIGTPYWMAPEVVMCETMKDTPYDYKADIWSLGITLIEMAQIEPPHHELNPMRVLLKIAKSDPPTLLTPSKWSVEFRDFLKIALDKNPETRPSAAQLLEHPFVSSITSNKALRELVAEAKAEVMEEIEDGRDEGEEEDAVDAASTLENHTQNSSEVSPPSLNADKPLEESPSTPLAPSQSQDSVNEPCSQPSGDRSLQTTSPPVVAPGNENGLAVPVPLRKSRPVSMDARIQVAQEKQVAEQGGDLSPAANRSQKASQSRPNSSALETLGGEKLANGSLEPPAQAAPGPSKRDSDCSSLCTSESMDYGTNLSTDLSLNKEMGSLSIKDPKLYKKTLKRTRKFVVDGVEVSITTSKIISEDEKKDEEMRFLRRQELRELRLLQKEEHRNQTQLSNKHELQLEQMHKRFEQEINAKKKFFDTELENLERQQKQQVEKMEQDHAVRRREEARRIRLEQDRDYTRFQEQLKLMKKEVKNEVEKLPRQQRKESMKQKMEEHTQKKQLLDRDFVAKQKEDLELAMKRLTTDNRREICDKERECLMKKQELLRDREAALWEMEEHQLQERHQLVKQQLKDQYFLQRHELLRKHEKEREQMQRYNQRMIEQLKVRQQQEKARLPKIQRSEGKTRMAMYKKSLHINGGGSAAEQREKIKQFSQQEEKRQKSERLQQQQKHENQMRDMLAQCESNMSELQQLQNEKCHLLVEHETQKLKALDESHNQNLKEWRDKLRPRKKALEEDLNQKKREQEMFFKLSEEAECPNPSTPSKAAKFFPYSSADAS
T3 sequence (P00519 whole entry): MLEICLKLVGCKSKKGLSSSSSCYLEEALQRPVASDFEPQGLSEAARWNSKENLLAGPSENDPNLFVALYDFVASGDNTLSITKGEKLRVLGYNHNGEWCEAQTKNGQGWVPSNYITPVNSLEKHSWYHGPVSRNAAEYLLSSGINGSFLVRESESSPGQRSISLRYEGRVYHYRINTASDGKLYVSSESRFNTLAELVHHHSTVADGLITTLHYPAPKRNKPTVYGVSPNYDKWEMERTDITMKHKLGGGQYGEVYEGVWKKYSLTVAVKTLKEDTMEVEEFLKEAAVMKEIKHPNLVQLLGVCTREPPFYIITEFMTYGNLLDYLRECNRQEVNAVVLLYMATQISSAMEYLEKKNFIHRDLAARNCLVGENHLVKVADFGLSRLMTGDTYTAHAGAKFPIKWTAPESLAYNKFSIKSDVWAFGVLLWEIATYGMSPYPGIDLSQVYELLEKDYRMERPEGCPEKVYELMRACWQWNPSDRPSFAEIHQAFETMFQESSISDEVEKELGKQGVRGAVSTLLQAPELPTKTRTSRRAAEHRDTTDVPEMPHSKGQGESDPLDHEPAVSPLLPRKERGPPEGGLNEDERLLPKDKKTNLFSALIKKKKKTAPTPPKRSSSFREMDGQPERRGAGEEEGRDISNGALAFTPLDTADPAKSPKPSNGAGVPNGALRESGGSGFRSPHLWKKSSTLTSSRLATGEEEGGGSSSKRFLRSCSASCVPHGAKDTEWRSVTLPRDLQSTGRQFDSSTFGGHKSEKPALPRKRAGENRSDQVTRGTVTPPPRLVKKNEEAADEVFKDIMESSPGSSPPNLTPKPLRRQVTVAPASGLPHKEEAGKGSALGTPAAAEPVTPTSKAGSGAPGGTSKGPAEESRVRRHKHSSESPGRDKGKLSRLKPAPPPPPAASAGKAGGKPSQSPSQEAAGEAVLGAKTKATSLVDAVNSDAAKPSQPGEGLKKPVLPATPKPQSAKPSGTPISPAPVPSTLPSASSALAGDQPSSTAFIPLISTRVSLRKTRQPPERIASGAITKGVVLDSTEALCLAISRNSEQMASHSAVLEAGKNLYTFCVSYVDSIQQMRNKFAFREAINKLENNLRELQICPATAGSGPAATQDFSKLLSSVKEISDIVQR
T6 sequence (O75676 whole entry): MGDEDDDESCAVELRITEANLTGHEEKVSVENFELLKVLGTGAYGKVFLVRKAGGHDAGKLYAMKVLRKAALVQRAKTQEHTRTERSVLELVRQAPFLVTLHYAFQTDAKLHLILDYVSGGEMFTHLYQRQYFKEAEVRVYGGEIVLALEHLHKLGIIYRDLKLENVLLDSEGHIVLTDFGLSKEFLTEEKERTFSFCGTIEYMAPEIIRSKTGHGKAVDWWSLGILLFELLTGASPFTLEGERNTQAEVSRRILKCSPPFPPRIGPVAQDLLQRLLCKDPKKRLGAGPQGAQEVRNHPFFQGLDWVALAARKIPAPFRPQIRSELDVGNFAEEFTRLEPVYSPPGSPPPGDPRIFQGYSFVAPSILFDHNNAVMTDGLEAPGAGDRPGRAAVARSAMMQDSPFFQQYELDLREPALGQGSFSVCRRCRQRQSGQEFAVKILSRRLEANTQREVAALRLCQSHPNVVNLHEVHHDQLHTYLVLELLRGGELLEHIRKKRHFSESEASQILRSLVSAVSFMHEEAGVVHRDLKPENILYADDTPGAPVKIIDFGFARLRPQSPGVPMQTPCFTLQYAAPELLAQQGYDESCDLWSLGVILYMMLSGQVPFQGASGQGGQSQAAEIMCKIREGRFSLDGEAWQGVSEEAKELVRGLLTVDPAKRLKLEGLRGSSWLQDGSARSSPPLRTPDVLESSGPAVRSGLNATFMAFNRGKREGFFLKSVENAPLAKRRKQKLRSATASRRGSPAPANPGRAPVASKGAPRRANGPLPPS
T7 sequence (P80192 whole entry): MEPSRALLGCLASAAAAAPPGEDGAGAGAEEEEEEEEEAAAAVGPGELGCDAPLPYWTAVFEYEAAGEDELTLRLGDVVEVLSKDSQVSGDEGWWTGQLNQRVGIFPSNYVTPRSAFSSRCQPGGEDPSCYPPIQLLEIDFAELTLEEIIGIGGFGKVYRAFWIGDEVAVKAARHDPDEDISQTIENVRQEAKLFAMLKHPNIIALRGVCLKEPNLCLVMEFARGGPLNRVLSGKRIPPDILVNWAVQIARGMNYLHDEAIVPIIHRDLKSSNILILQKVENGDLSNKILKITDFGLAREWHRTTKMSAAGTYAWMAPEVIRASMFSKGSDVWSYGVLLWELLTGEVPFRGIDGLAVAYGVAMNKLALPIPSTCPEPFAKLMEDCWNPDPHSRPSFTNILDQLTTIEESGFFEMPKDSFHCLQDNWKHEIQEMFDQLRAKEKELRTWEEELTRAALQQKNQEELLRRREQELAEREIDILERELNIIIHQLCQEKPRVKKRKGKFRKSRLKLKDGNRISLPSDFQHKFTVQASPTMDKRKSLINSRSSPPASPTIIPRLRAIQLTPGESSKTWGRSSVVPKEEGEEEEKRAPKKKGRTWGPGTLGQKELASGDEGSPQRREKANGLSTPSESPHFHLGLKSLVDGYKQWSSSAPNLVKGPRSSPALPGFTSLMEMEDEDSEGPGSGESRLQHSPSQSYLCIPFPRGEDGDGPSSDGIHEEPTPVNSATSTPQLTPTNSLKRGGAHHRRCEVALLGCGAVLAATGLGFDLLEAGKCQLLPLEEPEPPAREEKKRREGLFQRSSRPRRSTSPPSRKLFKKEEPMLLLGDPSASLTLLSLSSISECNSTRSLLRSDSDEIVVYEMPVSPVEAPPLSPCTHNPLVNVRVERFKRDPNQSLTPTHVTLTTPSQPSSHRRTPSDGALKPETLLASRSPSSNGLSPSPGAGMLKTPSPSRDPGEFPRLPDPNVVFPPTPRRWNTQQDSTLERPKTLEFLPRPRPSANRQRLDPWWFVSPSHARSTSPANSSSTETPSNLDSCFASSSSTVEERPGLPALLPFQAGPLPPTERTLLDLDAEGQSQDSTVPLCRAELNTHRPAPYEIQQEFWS

Which remaining activity at 10 µM (Aurora-A(h); batch_name=ASAP-0008674-002) does the source give for `CC(C)[C@H](Nc1ncnc2[nH]ccc12)c1ccc2c(c1)S(=O)(=O)CCC2` [ASAP-0008674] here?
Its remaining activity at 10 µM is 51%.

What about the remaining activity at 10 µM (PRAK(h); batch_name=ASAP-0008674-002) of the same compound?
Its remaining activity at 10 µM is 102%.

What about the remaining activity at 10 µM (ALK(h); batch_name=ASAP-0008674-002) of the same compound?
The remaining activity at 10 µM was 100%.

What about the remaining activity at 10 µM (Abl(h); batch_name=ASAP-0008674-002) of the same compound?
Its remaining activity at 10 µM is 105%.

And the remaining activity at 10 µM (eEF-2K(h); batch_name=ASAP-0008674-002)?
Its remaining activity at 10 µM is 93%.

What about the remaining activity at 10 µM (LOK(h); batch_name=ASAP-0008674-002) of the same compound?
Its remaining activity at 10 µM is 102%.

And the remaining activity at 10 µM (MSK2(h); batch_name=ASAP-0008674-002)?
The remaining activity at 10 µM was 92%.

And the remaining activity at 10 µM (KDR(h); batch_name=ASAP-0008674-002)?
Its remaining activity at 10 µM is 86%.

And the remaining activity at 10 µM (MLK1(h); batch_name=ASAP-0008674-002)?
The remaining activity at 10 µM was 84%.

And the remaining activity at 10 µM (CDK9/cyclin T1(h); batch_name=ASAP-0008674-002)?
Its remaining activity at 10 µM is 112%.

What about the remaining activity at 10 µM (p70S6K(h); batch_name=ASAP-0008674-002) of the same compound?
Its remaining activity at 10 µM is 103%.

What does the source list for `CC(C)[C@H](Nc1ncnc2[nH]c(-c3cnn(C)c3C#N)cc12)c1ccc2c(n1)OCCO2` [ASAP-0010715]?
remaining activity at 10 µM (Aurora-A(h); batch_name=ASAP-0010715-002): 53%; remaining activity at 10 µM (PRAK(h); batch_name=ASAP-0010715-002): 84%; remaining activity at 10 µM (ALK(h); batch_name=ASAP-0010715-002): 116%; remaining activity at 10 µM (Abl(h); batch_name=ASAP-0010715-002): 57%; remaining activity at 10 µM (eEF-2K(h); batch_name=ASAP-0010715-002): 108%; remaining activity at 10 µM (LOK(h); batch_name=ASAP-0010715-002): 45%; remaining activity at 10 µM (MSK2(h); batch_name=ASAP-0010715-002): 114%; remaining activity at 10 µM (KDR(h); batch_name=ASAP-0010715-002): 76%; remaining activity at 10 µM (MLK1(h); batch_name=ASAP-0010715-002): 73%; remaining activity at 10 µM (CDK9/cyclin T1(h); batch_name=ASAP-0010715-002): 79%; remaining activity at 10 µM (p70S6K(h); batch_name=ASAP-0010715-002): 125%

Which remaining activity at 10 µM (Aurora-A(h); batch_name=ASAP-0010716-002) does the source give for `CC(C)[C@@H](Nc1ncnc2[nH]c(-c3cnn(C)c3C#N)cc12)c1ccc2c(n1)OCCO2` [ASAP-0010716] here?
The remaining activity at 10 µM was 58%.

What about the remaining activity at 10 µM (PRAK(h); batch_name=ASAP-0010716-002) of the same compound?
Its remaining activity at 10 µM is 89%.

What about the remaining activity at 10 µM (ALK(h); batch_name=ASAP-0010716-002) of the same compound?
Its remaining activity at 10 µM is 106%.

And the remaining activity at 10 µM (Abl(h); batch_name=ASAP-0010716-002)?
The remaining activity at 10 µM was 57%.

And the remaining activity at 10 µM (eEF-2K(h); batch_name=ASAP-0010716-002)?
Its remaining activity at 10 µM is 106%.

What about the remaining activity at 10 µM (LOK(h); batch_name=ASAP-0010716-002) of the same compound?
Its remaining activity at 10 µM is 106%.

And the remaining activity at 10 µM (MSK2(h); batch_name=ASAP-0010716-002)?
Its remaining activity at 10 µM is 122%.

And the remaining activity at 10 µM (KDR(h); batch_name=ASAP-0010716-002)?
The remaining activity at 10 µM was 86%.

What about the remaining activity at 10 µM (MLK1(h); batch_name=ASAP-0010716-002) of the same compound?
The remaining activity at 10 µM was 82%.

And the remaining activity at 10 µM (CDK9/cyclin T1(h); batch_name=ASAP-0010716-002)?
The remaining activity at 10 µM was 84%.

What about the remaining activity at 10 µM (p70S6K(h); batch_name=ASAP-0010716-002) of the same compound?
Its remaining activity at 10 µM is 106%.

For `CNCc1cc(-c2cc3c(N[C@@H](c4ccc5c(c4)S(=O)(=O)CCC5)C(C)C)ncnc3[nH]2)co1` [ASAP-0011176], which remaining activity at 10 µM (Aurora-A(h); batch_name=ASAP-0011176-002) is on record?
The remaining activity at 10 µM was 73%.

And the remaining activity at 10 µM (PRAK(h); batch_name=ASAP-0011176-002)?
Its remaining activity at 10 µM is 122%.

And the remaining activity at 10 µM (ALK(h); batch_name=ASAP-0011176-002)?
The remaining activity at 10 µM was 99%.

And the remaining activity at 10 µM (Abl(h); batch_name=ASAP-0011176-002)?
The remaining activity at 10 µM was 51%.

What about the remaining activity at 10 µM (eEF-2K(h); batch_name=ASAP-0011176-002) of the same compound?
The remaining activity at 10 µM was 82%.

What about the remaining activity at 10 µM (LOK(h); batch_name=ASAP-0011176-002) of the same compound?
Its remaining activity at 10 µM is 92%.

And the remaining activity at 10 µM (MSK2(h); batch_name=ASAP-0011176-002)?
Its remaining activity at 10 µM is 91%.

And the remaining activity at 10 µM (KDR(h); batch_name=ASAP-0011176-002)?
Its remaining activity at 10 µM is 88%.

What about the remaining activity at 10 µM (MLK1(h); batch_name=ASAP-0011176-002) of the same compound?
The remaining activity at 10 µM was 86%.

What about the remaining activity at 10 µM (CDK9/cyclin T1(h); batch_name=ASAP-0011176-002) of the same compound?
Its remaining activity at 10 µM is 40%.

What about the remaining activity at 10 µM (p70S6K(h); batch_name=ASAP-0011176-002) of the same compound?
The remaining activity at 10 µM was 110%.
